Tested on: LG0703-F948-PDC spheroids with HUVEC/MSC, viability
Test: Anticancer human tumor LG0703-F948-PDC patient-derived lung adenocarcinoma cell line growth inhibition [IpAb]
Conditions: for IC50: curve of first compound; for viability, T/C: stronger effect = lower value; active = viability on the fitted dose curve at most 10% of control; inactive = the rest
How it was run: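 Combinations with ipatasertib or abemaciclib were tested on tumour spheroids holding HUVEC (25%) and MSC (15%) alongside 60% malignant cells. Top concentration was at or near clinical Cmax (10 microM if undefined), descending in half-log steps.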

[1] = second compound 0.01 µM, first compound 0.0316 µM
[2] = second compound 0.01 µM, first compound 0.1 µM
[3] = second compound 0.01 µM, first compound 0.316 µM
[4] = second compound 0.01 µM, first compound 1 µM
[5] = second compound 0.01 µM, first compound 3.16 µM
[6] = second compound 0.01 µM, first compound 10 µM
[7] = second compound 0.0316 µM, first compound 0.0316 µM
[8] = second compound 0.0316 µM, first compound 0.1 µM
[9] = second compound 0.0316 µM, first compound 0.316 µM
[10] = second compound 0.0316 µM, first compound 1 µM
[11] = second compound 0.0316 µM, first compound 3.16 µM
[12] = second compound 0.0316 µM, first compound 10 µM
[13] = second compound 0.1 µM, first compound 0.0316 µM
[14] = second compound 0.1 µM, first compound 0.1 µM
[15] = second compound 0.1 µM, first compound 0.316 µM
[16] = second compound 0.1 µM, first compound 1 µM
[17] = second compound 0.1 µM, first compound 3.16 µM
[18] = second compound 0.1 µM, first compound 10 µM
[19] = second compound 0.316 µM, first compound 0.0316 µM
[20] = second compound 0.316 µM, first compound 0.1 µM
[21] = second compound 0.316 µM, first compound 0.316 µM
[22] = second compound 0.316 µM, first compound 1 µM
[23] = second compound 0.316 µM, first compound 3.16 µM
[24] = second compound 0.316 µM, first compound 10 µM
[25] = second compound 1 µM, first compound 0.0316 µM
[26] = second compound 1 µM, first compound 0.1 µM
[27] = second compound 1 µM, first compound 0.316 µM
[28] = second compound 1 µM, first compound 1 µM
[29] = second compound 1 µM, first compound 3.16 µM
[30] = second compound 1 µM, first compound 10 µM
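Also: spheroids exposed to compounds for seven days before readout.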
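For viability, T/C in this document: T/C percent relative to DMSO vehicle wells set as 100% viability.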

C=CC(=O)N1CCN(c2nc(=O)n(-c3c(C)ccnc3C(C)C)c3nc(-c4c(O)cccc4F)c(F)cc23)C(C)C1 (stereo not given) + CCN1CCN(Cc2ccc(Nc3ncc(F)c(-c4cc(F)c5nc(C)n(C(C)C)c5c4)n3)nc2)CC1
inactive: viability, T/C [1] 110% | viability, T/C [2] 110% | viability, T/C [3] 107% | viability, T/C [4] 121% | viability, T/C [5] 111% | viability, T/C [6] 79.5% | viability, T/C [7] 95.5% | viability, T/C [8] 92% | viability, T/C [9] 94.2% | viability, T/C [10] 104% | viability, T/C [11] 99.2% | viability, T/C [12] 75.9% | viability, T/C [13] 86.6% | viability, T/C [14] 95.5% | viability, T/C [15] 91.2% | viability, T/C [16] 94.5% | viability, T/C [17] 91.8% | viability, T/C [18] 73% | viability, T/C [19] 88.1% | viability, T/C [20] 85.6% | viability, T/C [21] 82.3% | viability, T/C [22] 97.7% | viability, T/C [23] 95.6% | viability, T/C [24] 79.6% | viability, T/C [25] 89.8% | viability, T/C [26] 82.9% | viability, T/C [27] 46.8% | viability, T/C [28] 96.6% | viability, T/C [29] 95.7% | viability, T/C [30] 73.1%
> 10000 nM: IC50 (second compound 0.01 µM) | IC50 (second compound 0.0316 µM) | IC50 (second compound 0.1 µM) | IC50 (second compound 0.316 µM) | IC50 (second compound 1 µM)

Cn1ncc(Cl)c1-c1cc(C(=O)NC(CN)Cc2cccc(F)c2)sc1Cl (stereo not given) + CCN1CCN(Cc2ccc(Nc3ncc(F)c(-c4cc(F)c5nc(C)n(C(C)C)c5c4)n3)nc2)CC1
643 nM: IC50 (second compound 0.01 µM)
349 nM: IC50 (second compound 0.316 µM)
401 nM: IC50 (second compound 0.0316 µM)
active: viability, T/C [6] 0.13% | viability, T/C [12] 0.13% | viability, T/C [18] 0.13% | viability, T/C [24] 0.12% | viability, T/C [29] 1.07% | viability, T/C [30] 0.17%
inactive: viability, T/C [1] 88% | viability, T/C [2] 67.6% | viability, T/C [3] 59.3% | viability, T/C [4] 49.3% | viability, T/C [5] 21.5% | viability, T/C [7] 86.1% | viability, T/C [8] 63.7% | viability, T/C [9] 51.3% | viability, T/C [10] 45.9% | viability, T/C [11] 13.3% | viability, T/C [13] 86.3% | viability, T/C [14] 68.8% | viability, T/C [15] 44.4% | viability, T/C [16] 46.4% | viability, T/C [17] 13.5% | viability, T/C [19] 86.1% | viability, T/C [20] 70% | viability, T/C [21] 41.9% | viability, T/C [22] 48.7% | viability, T/C [23] 7.04% | viability, T/C [25] 77.9% | viability, T/C [26] 71.5% | viability, T/C [27] 37.4% | viability, T/C [28] 40.1%
278 nM: IC50 (second compound 1 µM)
372 nM: IC50 (second compound 0.1 µM)

Cn1ncnc1[C@H]1c2n[nH]c(=O)c3cc(F)cc(c23)N[C@@H]1c1ccc(F)cc1 + CCN1CCN(Cc2ccc(Nc3ncc(F)c(-c4cc(F)c5nc(C)n(C(C)C)c5c4)n3)nc2)CC1
> 100 nM: IC50 (second compound 0.01 µM) | IC50 (second compound 0.0316 µM) | IC50 (second compound 0.1 µM) | IC50 (second compound 0.316 µM) | IC50 (second compound 1 µM)
inactive: viability, T/C (second compound 0.01 µM, first compound 0.000316 µM) 104% | viability, T/C (second compound 0.01 µM, first compound 0.001 µM) 98% | viability, T/C (second compound 0.01 µM, first compound 0.00316 µM) 99.2% | viability, T/C (second compound 0.01 µM, first compound 0.01 µM) 97.3% | viability, T/C [1] 91.2% | viability, T/C [2] 88.8% | viability, T/C (second compound 0.0316 µM, first compound 0.000316 µM) 94% | viability, T/C (second compound 0.0316 µM, first compound 0.001 µM) 91.4% | viability, T/C (second compound 0.0316 µM, first compound 0.00316 µM) 79.9% | viability, T/C (second compound 0.0316 µM, first compound 0.01 µM) 86.1% | viability, T/C [7] 92.6% | viability, T/C [8] 83.4% | viability, T/C (second compound 0.1 µM, first compound 0.000316 µM) 79.5% | viability, T/C (second compound 0.1 µM, first compound 0.001 µM) 88.8% | viability, T/C (second compound 0.1 µM, first compound 0.00316 µM) 73% | viability, T/C (second compound 0.1 µM, first compound 0.01 µM) 75.2% | viability, T/C [13] 74.4% | viability, T/C [14] 84.3% | viability, T/C (second compound 0.316 µM, first compound 0.000316 µM) 85.6% | viability, T/C (second compound 0.316 µM, first compound 0.001 µM) 80.6% | viability, T/C (second compound 0.316 µM, first compound 0.00316 µM) 67.7% | viability, T/C (second compound 0.316 µM, first compound 0.01 µM) 86.8% | viability, T/C [19] 84.1% | viability, T/C [20] 76.7% | viability, T/C (second compound 1 µM, first compound 0.000316 µM) 82.2% | viability, T/C (second compound 1 µM, first compound 0.001 µM) 72.7% | viability, T/C (second compound 1 µM, first compound 0.00316 µM) 43.4% | viability, T/C (second compound 1 µM, first compound 0.01 µM) 68.9% | viability, T/C [25] 74.4% | viability, T/C [26] 80.2%
